# Experiment: Delivery across full thickness murine skin in a Franz diffusion cell from drug reservoir with integrated PMVMA microneedle array
# Conditions: reservoir 19.0 mg TMP cm^-2 attached to PMVMA microneedle array; receiver compartment followed over 25 hours; FIG. 11
# Procedure: In this study, a matrix-type drug reservoir containing 19.0 mg TMP cm^−2 was prepared and attached to a poly(methylvinylether/maleic acid-co-glyceride) (PMVMA) microneedle array. This system was pressed into full thickness murine skin, mounted as the barrier membrane in a Franz diffusion cell, with the aid of gentle pressure. TMP appearing in the receiver compartment was determined by fluorescence spectroscopy over a period of 25 hours.
# An identical experiment to that described in Example 3 was performed again. The only difference was that the small very water soluble photosensitiser precursor 5-aminolevulinc acid (ALA, MW 167 Da) was used instead of TMP.
smiles,measurement,value
"C[n+]1ccc(-c2c3nc(c(-c4cc[n+](C)cc4)c4ccc([nH]4)c(-c4cc[n+](C)cc4)c4nc(c(-c5cc[n+](C)cc5)c5ccc2[nH]5)C=C4)C=C3)cc1.Cc1ccc(S(=O)(=O)[O-])cc1.Cc1ccc(S(=O)(=O)[O-])cc1.Cc1ccc(S(=O)(=O)[O-])cc1.Cc1ccc(S(=O)(=O)[O-])cc1 [TMP, meso-Tetra (N-methyl-4-pyridyl) porphine tetra tosylate]",delivery of TMP across full thickness skin,sustained delivery of TMP across full thickness skin is possible
